# From PubChem BioAssay (NCI)
#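 1) Cells in 96-well plates. 2) Compound, 48 h, 5 concentrations. 3) Linear interpolation between surrounding doses. 4) Unreached endpoint = highest concentration. Definition used: TGI = concentration required for complete inhibition of growth.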
# Experiments:
# Experiment in all cases: inhibition of tumour cell growth, NCI panel, 48 h
# [1] = test system: OVCAR-8 ovarian
# [2] = test system: SF-539 CNS
# [3] = test system: M19-MEL melanoma
# [4] = test system: NCI-H23 lung
# [5] = test system: OVCAR-4 ovarian
# [6] = test system: RPMI-8226 leukemia
# [7] = test system: IGROV1 ovarian
# [8] = test system: HCT-116 colon
# [9] = test system: SK-OV-3 ovarian
# [10] = test system: COLO 205 colon
# [11] = test system: SN12C renal
# [12] = test system: EKVX NSCLC
# [13] = test system: SK-MEL-28 melanoma
# [14] = test system: ACHN renal
# [15] = test system: LXFL 529 NSCLC
# [16] = test system: SK-MEL-2 melanoma
# [17] = test system: UO-31 renal
# [18] = test system: HOP-62 NSCLC
# [19] = test system: M14 melanoma
# [20] = test system: NCI-H226 lung
# [21] = test system: SW-620 colon
# [22] = test system: LOX IMVI melanoma
# [23] = test system: CAKI-1 renal
# [24] = test system: 786-0 renal
# [25] = test system: HOP-92 NSCLC
# [26] = test system: A549 NSCLC
# [27] = test system: U251 CNS
# [28] = test system: SNB-19 CNS
# [29] = test system: UACC-257 melanoma
# [30] = test system: A498 renal
# [31] = test system: UACC-62 melanoma
# [32] = test system: DMS 114 small cell lung
# [33] = test system: SK-MEL-5 melanoma
# [34] = test system: SF-295 CNS
# [35] = test system: OVCAR-5 ovarian
# [36] = test system: DLD-1 colon
# [37] = test system: HCT-15 colon
# [38] = test system: NCI-H460 lung
# [39] = test system: HT29 colon
# [40] = test system: SNB-78 CNS
# [41] = test system: HL-60(TB) leukemia
# [42] = test system: OVCAR-3 ovarian
# [43] = test system: RXF 393 renal
# [44] = test system: KM12 colon
# [45] = test system: MOLT-4 leukemia
# [46] = test system: KM20L2 colon
# [47] = test system: HCC-2998 colon
# [48] = test system: MALME-3M melanoma
# [49] = test system: DMS 273 small cell lung
# [50] = test system: NCI-H522 lung
# [51] = test system: SNB-75 CNS
# [52] = test system: TK-10 renal
# [53] = test system: K-562 leukemia
# [54] = test system: SR leukemia
# [55] = test system: CCRF-CEM leukemia
# [56] = test system: MDA-MB-231 breast
# [57] = test system: T-47D breast
# [58] = test system: BT-549 breast
# [59] = test system: NCI/ADR-RES ovarian
# [60] = test system: MDA-N
# [61] = test system: MCF7 breast
# [62] = test system: MDA-MB-435
# [63] = test system: HS 578T breast
# [64] = test system: DU-145 prostate
# [65] = test system: PC-3 prostate
# [66] = test system: SF-268 CNS
structure (smiles),measurement,setting,value
O=C(Nc1ccc(Cl)cc1Cl)C(=O)C(C(=O)c1ccc2ccccc2c1)C1OC(=O)c2ccccc21 (stereo not drawn),TGI,[1],34.6 µM
same,TGI,[2],11.7 µM
same,TGI,[3],30.3 µM
same,TGI,[4],13.1 µM
same,TGI,[5],35.2 µM
same,TGI,[6],> 100 µM
same,TGI,[7],57.7 µM
same,TGI,[8],18 µM
same,TGI,[9],> 100 µM
same,TGI,[10],57 µM
same,TGI,[11],30.7 µM
same,TGI,[12],35.9 µM
same,TGI,[13],15.3 µM
same,TGI,[14],> 100 µM
same,TGI,[15],17.6 µM
same,TGI,[16],31.7 µM
same,TGI,[17],27 µM
same,TGI,[18],27.8 µM
same,TGI,[19],28 µM
same,TGI,[20],6.33 µM
same,TGI,[21],24.9 µM
same,TGI,[22],24.9 µM
same,TGI,[23],83 µM
same,TGI,[24],19.5 µM
same,TGI,[25],8.92 µM
same,TGI,[26],73.6 µM
same,TGI,[27],16.2 µM
same,TGI,[28],22.1 µM
same,TGI,[29],65.3 µM
same,TGI,[30],20.2 µM
same,TGI,[31],46.7 µM
same,TGI,[32],46.2 µM
same,TGI,[33],26.1 µM
same,TGI,[34],19.7 µM
same,TGI,[35],19.6 µM
same,TGI,[36],30.9 µM
same,TGI,[37],42.3 µM
same,TGI,[38],17.3 µM
same,TGI,[39],33.1 µM
same,TGI,[40],78.4 µM
same,TGI,[41],23.9 µM
same,TGI,[42],26.1 µM
same,TGI,[43],11.7 µM
same,TGI,[44],31.9 µM
COC(=O)C(C(=O)C(=O)Nc1ccc(C(F)(F)F)cc1[N+](=O)[O-])c1csc(-n2nc(-c3ccccc3)cc2-c2ccccc2)n1 (stereo not drawn),TGI,[1],> 100 µM
same,TGI,[2],> 100 µM
same,TGI,[3],> 100 µM
same,TGI,[4],> 100 µM
same,TGI,[45],> 100 µM
same,TGI,[5],> 100 µM
same,TGI,[6],> 100 µM
same,TGI,[7],> 100 µM
same,TGI,[46],> 100 µM
same,TGI,[8],> 100 µM
same,TGI,[9],> 100 µM
same,TGI,[10],> 100 µM
same,TGI,[11],> 100 µM
same,TGI,[47],> 100 µM
same,TGI,[15],> 100 µM
same,TGI,[16],> 100 µM
same,TGI,[48],> 100 µM
same,TGI,[17],> 100 µM
same,TGI,[18],> 100 µM
same,TGI,[19],> 100 µM
same,TGI,[49],> 100 µM
same,TGI,[20],> 100 µM
same,TGI,[21],> 100 µM
same,TGI,[22],> 100 µM
same,TGI,[50],> 100 µM
same,TGI,[23],> 100 µM
same,TGI,[24],> 100 µM
same,TGI,[26],> 100 µM
same,TGI,[27],> 100 µM
same,TGI,[28],> 100 µM
same,TGI,[29],> 100 µM
same,TGI,[30],> 100 µM
same,TGI,[31],> 100 µM
same,TGI,[32],> 100 µM
same,TGI,[34],> 100 µM
same,TGI,[51],> 100 µM
same,TGI,[35],> 100 µM
same,TGI,[37],> 100 µM
same,TGI,[38],> 100 µM
same,TGI,[52],> 100 µM
same,TGI,[53],> 100 µM
same,TGI,[39],> 100 µM
same,TGI,[40],> 100 µM
same,TGI,[54],> 100 µM
same,TGI,[41],> 100 µM
same,TGI,[42],> 100 µM
same,TGI,[43],> 100 µM
same,TGI,[44],> 100 µM
same,TGI,[55],> 100 µM
COc1cc(/C=C/C(=O)c2c(=O)o[nH][n+]2-c2ccccc2)ccc1[O-],TGI,[1],8.09 µM
same,TGI,[2],5.92 µM
same,TGI,[56],12.4 µM
same,TGI,[4],8.78 µM
same,TGI,[45],5.59 µM
same,TGI,[5],7.17 µM
same,TGI,[6],5.55 µM
same,TGI,[7],9.66 µM
same,TGI,[57],11.7 µM
same,TGI,[8],5.67 µM
same,TGI,[9],16.1 µM
same,TGI,[10],27.2 µM
same,TGI,[11],5.3 µM
same,TGI,[12],15.9 µM
same,TGI,[13],8.85 µM
same,TGI,[47],6.28 µM
same,TGI,[14],6.17 µM
same,TGI,[16],6.06 µM
same,TGI,[58],7.9 µM
same,TGI,[59],7.22 µM
same,TGI,[48],12 µM
same,TGI,[17],10.1 µM
same,TGI,[18],16 µM
same,TGI,[60],6.25 µM
same,TGI,[19],9.64 µM
same,TGI,[20],> 24.1 µM
same,TGI,[21],5.85 µM
same,TGI,[22],6.75 µM
same,TGI,[50],4.29 µM
same,TGI,[23],9.41 µM
same,TGI,[24],4.94 µM
same,TGI,[25],7.39 µM
same,TGI,[26],14.8 µM
same,TGI,[27],11 µM
same,TGI,[28],17.4 µM
same,TGI,[29],12.4 µM
same,TGI,[61],13.8 µM
same,TGI,[30],20.2 µM
same,TGI,[31],13.7 µM
same,TGI,[33],15 µM
same,TGI,[62],9.24 µM
same,TGI,[63],9.6 µM
same,TGI,[34],31.6 µM
same,TGI,[51],8.7 µM
same,TGI,[35],25.6 µM
same,TGI,[37],6.12 µM
same,TGI,[64],5.72 µM
same,TGI,[38],4.34 µM
same,TGI,[52],10.5 µM
same,TGI,[53],8.61 µM
same,TGI,[39],6.64 µM
same,TGI,[54],4.54 µM
same,TGI,[41],3.65 µM
same,TGI,[42],4.82 µM
same,TGI,[43],4.65 µM
same,TGI,[65],21.7 µM
same,TGI,[44],8.77 µM
same,TGI,[55],3.52 µM
same,TGI,[66],15.2 µM
NCCCOCC(=O)O,TGI,[1],> 100 µM
same,TGI,[2],> 100 µM
same,TGI,[3],> 100 µM
same,TGI,[4],> 100 µM
same,TGI,[45],> 100 µM
same,TGI,[5],> 100 µM
same,TGI,[6],> 100 µM
same,TGI,[7],> 100 µM
same,TGI,[46],> 100 µM
same,TGI,[8],> 100 µM
same,TGI,[9],> 100 µM
same,TGI,[10],> 100 µM
same,TGI,[11],> 100 µM
same,TGI,[12],> 100 µM
same,TGI,[13],> 100 µM
same,TGI,[47],> 100 µM
same,TGI,[14],> 100 µM
same,TGI,[15],> 100 µM
same,TGI,[16],> 100 µM
same,TGI,[48],> 100 µM
same,TGI,[17],> 100 µM
same,TGI,[49],> 100 µM
same,TGI,[20],> 100 µM
same,TGI,[21],> 100 µM
same,TGI,[24],> 100 µM
same,TGI,[25],> 100 µM
same,TGI,[26],> 100 µM
same,TGI,[27],> 100 µM
same,TGI,[28],> 100 µM
same,TGI,[29],> 100 µM
same,TGI,[31],> 100 µM
same,TGI,[32],> 100 µM
same,TGI,[33],> 100 µM
same,TGI,[34],> 100 µM
same,TGI,[51],> 100 µM
same,TGI,[35],> 100 µM
same,TGI,[37],> 100 µM
same,TGI,[52],> 100 µM
same,TGI,[53],> 100 µM
same,TGI,[39],> 100 µM
same,TGI,[40],> 100 µM
same,TGI,[54],> 100 µM
same,TGI,[42],> 100 µM
same,TGI,[43],> 100 µM
same,TGI,[44],> 100 µM
same,TGI,[66],> 100 µM
